Results as given in article PMC11239830, “Synthetic macrolides overcoming MLSBK-resistant pathogens” (Cell Discovery, 2024).
In brackets after ≈: the same amount, converted by molar mass. Like-named read-outs stand apart in the source and are kept apart here.

Tests used:
S. pneumoniae = assay: MIC, broth microdilution; assay type: cell-based, Streptococcus pneumoniae
Summary of the method: (§1)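 Incubation ran for 16–20 h at 37 °C after setup per Clinical and Laboratory Standards Institute microdilution procedure. Growth was then observed to assign the MIC. Assays were replicated at least three times.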

S. pyogenes = assay: MIC, broth microdilution; assay type: cell-based, Streptococcus pyogenes
Summary of the method: as §1

S. aureus = assay: MIC, broth microdilution; assay type: cell-based, Staphylococcus aureus
Summary of the method: as §1

M. catarrhalis = assay: MIC, broth microdilution; assay type: cell-based, Moraxella catarrhalis; conditions: Moraxella catarrhalis; M. catarrhalis 13L332, Ery-S; read-out: MIC
Summary of the method: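 CLSI microdilution; 2-fold dilutions in CAMHB; inoculum 5 × 10^5 CFU/mL; 37 °C, 16–20 h; visual endpoint, no growth; n ≥ 3.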

[1] = system: 15B196 S. aureus ribosomes (A2058-methylated); assay: PURE in vitro translation inhibition assay; assay type: biochemical, Staphylococcus aureus; conditions: mean ± SD
Experimental: (§2) To validate the in vitro activity of our compounds, we employed an in vitro reconstituted E. coli Protein synthesis Using a Recombinant Elements (PURE) translation system, substituting E. coli ribosomes with the purified S. aureus ribosomes.
(§3) 5 μL of PURE reaction mix that translates a gene encoding the Nanoluc luciferase was set up in the presence or absence of tested compounds. Protein synthesis was initiated by incubating reactions at 37 °C for 60 min and stopped by placing on ice for 5 min. Luciferase activity was quantified using the Nano-Glo luciferase assay system and read on a GloMax 20/20 luminometer (Promega, USA). For each compound, the in vitro translation inhibition assay was performed in three biological triplicates over a range of concentrations from 0.001 μM to 1000 μM. A compound-free control was used to normalize luminescence measurements. The calculated luminescence percentages were plotted against compound concentrations on a semilog scale using GraphPad Prism.

WT S. aureus ribosomes = assay: PURE in vitro translation inhibition assay; assay type: biochemical, Staphylococcus aureus; conditions: mean ± SD
Experimental: as §2, §3

[2] = CCK-8 assay for cytotoxicity; assay type: cell-based, human
Experimental: (§4) HepG2 cells (6 × 10^3) and HEK293T cells (4 × 10^3) were seeded into 96-well plates in 90 μL of DMEM medium containing 10% FBS per well. All test compounds were formulated as 10 mM stock solutions in DMSO (final concentration ≤ 0.5%). After overnight incubation, the test compound stock solution was diluted with DMEM medium containing 10% FBS to every target concentration, and 10 μL of each was added to each well. Three parallel experiments were set up for each compound. After incubation for 48 h, 10 μL of cell counting kit-8 (CCK-8) reagent was added to each well in sequence according to the manufacturer’s instructions. After incubating in a 37 °C incubator for 1–2 h, the absorbance was measured at a wavelength of 450 nm, and detected by ThermoScientific Multiskan FC (ThermoFisher Scientific, USA). This experiment was independently repeated three times. The data were processed by GraphPad Prism.

HepG2 cells = assay: CCK-8 assay for cytotoxicity; assay type: cell-based, human; conditions: HepG2, 5 μM, 48 h
Experimental: as §4

[3] = CCK-8 assay for cytotoxicity; assay type: cell-based, human; conditions: human, HEK293T cells, HEK293T cell viability
Experimental: as §4, with “All test compounds were formulated as 10 mM stock solutions in DMSO (final concentration ≤ 0.5%).” left out, “After incubating in a 37 °C incubator for 1–2 h, the absorbance was measured at a wavelength of 450 nm, and detected by ThermoScientific Multiskan FC (ThermoFisher Scientific, USA).” left out

[4] = Staphylococcus aureus, MRSA, MRSA (13)
[5] = Staphylococcus aureus, i-MLSB S. aureus (10)

CC[C@H]1OC(=O)[C@H](C)[C@@H](OC(=O)NCCCCCCC#Cc2ccc3c(=O)c(C(=O)O)cn(C)c3c2)[C@H](C)[C@@H](O[C@@H]2O[C@H](C)C[C@H](N(C)C)[C@H]2O)[C@](C)(OC)C[C@@H](C)C(=O)[C@H](C)[C@H]2NC(=O)O[C@@]21C [MCX-219]
MIC (S. pneumoniae; S. pneumoniae 07P390, c-ermB, listed as 88g): 0.06 µg/mL (≈ 0.062 µM)
MIC (S. pneumoniae; S. pneumoniae 21C315, Clinical, c-ermB): 0.016 µg/mL (≈ 0.0165 µM)
MIC (S. pneumoniae; S. pneumoniae 21D016, Clinical, c-ermB, mef): 0.03 µg/mL (≈ 0.031 µM)
MIC (S. pneumoniae; S. pneumoniae 21D020, Clinical, c-ermB, mef): 0.03 µg/mL (≈ 0.031 µM)
MIC (S. pneumoniae; S. pneumoniae 21M277, Clinical, c-ermB): 0.25 µg/mL (≈ 0.258 µM)
MIC (S. pneumoniae; S. pneumoniae 21Q352, Clinical, i-MLSB): ≤ 0.002 µg/mL
MIC (S. pneumoniae; S. pneumoniae 21Q353, Clinical, i-MLSB): ≤ 0.002 µg/mL
MIC (S. pneumoniae; S. pneumoniae 21W257, Clinical, c-ermB, mef): 0.016 µg/mL (≈ 0.0165 µM)
MIC (S. pneumoniae; S. pneumoniae 21X435, Clinical): ≤ 0.002 µg/mL
MIC (S. pneumoniae; S. pneumoniae ATCC49619): ≤ 0.002 µg/mL
MIC (S. pneumoniae; Streptococcus pneumoniae, ATCC49619, S. pneumoniae ATCC49619, Ery-S, read-out: MIC): ≤ 0.008 µg/mL
MIC (S. pneumoniae; Streptococcus pneumoniae, S. pneumoniae 05O173, c-ermB, mef, read-out: MIC): 2 µg/mL (≈ 2.07 µM)
MIC (S. pneumoniae; Streptococcus pneumoniae, S. pneumoniae 07P390, c-ermB, read-out: MIC): 0.03 µg/mL (≈ 0.031 µM)
MIC (S. pneumoniae; Streptococcus pneumoniae, S. pneumoniae PU09, mef, read-out: MIC): ≤ 0.008 µg/mL
MIC (S. pyogenes; S. pyogenes 01-968, Clinical, i-ermB): ≤ 0.002 µg/mL
MIC (S. pyogenes; S. pyogenes 12-207, Clinical, mef): 0.016 µg/mL (≈ 0.0165 µM)
MIC (S. pyogenes; S. pyogenes 21C303, Clinical, c-ermB): 0.5 µg/mL (≈ 0.517 µM)
MIC (S. pyogenes; S. pyogenes 21D184, Clinical, c-ermB): 0.5 µg/mL (≈ 0.517 µM)
MIC (S. pyogenes; S. pyogenes 21D199, Clinical, c-ermB): 1 µg/mL (≈ 1.03 µM)
MIC (S. pyogenes; S. pyogenes 21D200, Clinical, c-ermB): 0.25 µg/mL (≈ 0.258 µM)
MIC (S. pyogenes; S. pyogenes 21K003, Clinical, mef): 0.06 µg/mL (≈ 0.062 µM)
MIC (S. pyogenes; S. pyogenes 21M063, Clinical, c-ermB): 0.25 µg/mL (≈ 0.258 µM)
MIC (S. pyogenes; S. pyogenes 21W186, Clinical, c-ermTR): 4 µg/mL (≈ 4.14 µM)
MIC (S. pyogenes; Streptococcus pyogenes, S. pyogenes 01-968, i-ermTR (Table S5), read-out: MIC): ≤ 0.008 µg/mL
MIC (S. pyogenes; Streptococcus pyogenes, S. pyogenes 12-206, c-ermB (Table S5), read-out: MIC): 0.12 µg/mL (≈ 0.124 µM)
MIC (S. pyogenes; Streptococcus pyogenes, S. pyogenes 12-206, c-ermTR, read-out: MIC): 0.06 µg/mL (≈ 0.062 µM)
MIC (S. aureus; S. aureus 15B196, Clinical, MRSA, c-ermB): 1 µg/mL (≈ 1.03 µM)
MIC (S. aureus; S. aureus 21B200, Clinical, MRSA, c-ermB): 4 µg/mL (≈ 4.14 µM)
MIC (S. aureus; S. aureus 21B207, Clinical, MRSA, c-ermB): 2 µg/mL (≈ 2.07 µM)
MIC (S. aureus; S. aureus 21B212, Clinical, MSSA, i-ermC): 0.25 µg/mL (≈ 0.258 µM)
MIC (S. aureus; S. aureus 21C173, Clinical, MSSA, i-ermC): 0.25 µg/mL (≈ 0.258 µM)
MIC (S. aureus; S. aureus 21C174, Clinical, MSSA, c-ermB): 0.25 µg/mL (≈ 0.258 µM)
MIC (S. aureus; S. aureus 21C187, Clinical, MRSA, i-ermA): 0.12 µg/mL (≈ 0.124 µM)
MIC (S. aureus; S. aureus 21D112, Clinical, MSSA, c-ermB): 16 µg/mL (≈ 16.5 µM)
MIC (S. aureus; S. aureus 21D115, Clinical, MSSA, i-ermC): 0.25 µg/mL (≈ 0.258 µM)
MIC (S. aureus; S. aureus 21F198, Clinical, MRSA, c-ermB): 1 µg/mL (≈ 1.03 µM)
MIC (S. aureus; S. aureus 21F206, Clinical, MSSA, c-ermB): 8 µg/mL (≈ 8.27 µM)
MIC (S. aureus; S. aureus 21F207, Clinical, MRSA, i-ermC): 0.25 µg/mL (≈ 0.258 µM)
MIC (S. aureus; S. aureus 21K194, Clinical, MSSA, i-ermC): 0.06 µg/mL (≈ 0.062 µM)
MIC (S. aureus; S. aureus 21N354, Clinical, MRSA, c-ermB): 1 µg/mL (≈ 1.03 µM)
MIC (S. aureus; S. aureus 21P191, Clinical, MSSA, c-ermC): 16 µg/mL (≈ 16.5 µM)
MIC (S. aureus; S. aureus 21P404, Clinical, MSSA, i-ermC): 0.25 µg/mL (≈ 0.258 µM)
MIC (S. aureus; S. aureus 21P407, Clinical, MRSA, c-ermB): 8 µg/mL (≈ 8.27 µM)
MIC (S. aureus; S. aureus 21Q253, Clinical, MRSA, c-ermB): 1 µg/mL (≈ 1.03 µM)
MIC (S. aureus; S. aureus 21R216, Clinical, MSSA, c-ermC): 16 µg/mL (≈ 16.5 µM)
MIC (S. aureus; S. aureus 21T141, Clinical, MRSA, c-ermB): 1 µg/mL (≈ 1.03 µM)
MIC (S. aureus; S. aureus 21X388, Clinical, i-ermA (MRSA in Table S9, MSSA in Fig. 2a)): 0.06 µg/mL (≈ 0.062 µM)
MIC (S. aureus; S. aureus 21Y223, Clinical, MRSA, i-ermC): 0.25 µg/mL (≈ 0.258 µM)
MIC (S. aureus; S. aureus ATCC29213): 0.12 µg/mL (≈ 0.124 µM)
MIC (S. aureus; S. aureus PU32, Clinical, MRSA, i-ermA): 0.25 µg/mL (≈ 0.258 µM)
MIC50 (S. aureus; [4]): 1 µg/mL (≈ 1.03 µM)
MIC90 (S. aureus; [4]): 4 µg/mL (≈ 4.14 µM)
MIC50 (S. aureus; Staphylococcus aureus, MSSA, MSSA (10)): 0.25 µg/mL (≈ 0.258 µM)
MIC (S. aureus; Staphylococcus aureus, S. aureus 15B196, c-ermB, read-out: MIC): 1 µg/mL (≈ 1.03 µM)
MIC (S. aureus; Staphylococcus aureus, S. aureus PU32, i-ermA, read-out: MIC): 0.25 µg/mL (≈ 0.258 µM)
MIC50 (S. aureus; Staphylococcus aureus, c-MLSB (constitutive) S. aureus (13)): 2 µg/mL (≈ 2.07 µM)
MIC90 (S. aureus; Staphylococcus aureus, c-MLSB S. aureus (13)): 16 µg/mL (≈ 16.5 µM)
MIC50 (S. aureus; [5]): 0.25 µg/mL (≈ 0.258 µM)
MIC90 (S. aureus; [5]): 0.25 µg/mL (≈ 0.258 µM)
MIC90 (S. aureus; Staphylococcus aureus, MSSA (10)): 16 µg/mL (≈ 16.5 µM)
MIC (M. catarrhalis): 0.5 µg/mL (≈ 0.517 µM)
IC50 [1]: 0.57 ± 0.14 µM
IC50 (WT S. aureus ribosomes): 0.72 ± 0.37 µM
CC50 at 48 h ([2]; human HepG2 and HEK293T cells, read-out: CC50 (cytotoxicity)): 26 to 29 µM
CC50 at 48 h ([2]; human, HepG2 cells, HepG2 cell viability, 48 h, read-out: CC50): 28.9 ± 2.68 µM
cytotoxicity at 5 μM (HepG2 cells): significantly reduced cytotoxicity compared to TcmX
CC50 at 48 h [3]: 25.7 ± 4.08 µM
